Assay results as given in the supplement of paper PMC10307832.

Key:
Assay in all cases: relative viability (nuclei count vs DMSO), 5 days (fraction); higher = more cells survive
[1] = compound: C1=CC2=C(C=C(C(=C2N=C1)O)N=NC3=CC4=C(C=C3)C=C(C=C4)S(=O)(=O)O)S(=O)(=O)O + CC1(C)CCC(c2ccc(Cl)cc2)=C(CN2CCN(c3ccc(C(=O)NS(=O)(=O)c4ccc(N[C@H](CCN5CCOCC5)CSc5ccccc5)c(S(=O)(=O)C(F)(F)F)c4)cc3)CC2)C1 [Navitoclax] (partner 0.5 µM)
Method in brief: (§1)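 Values are medians from duplicate plates. Each reflects relative viability, defined as the nuclei count of treated wells over that of vehicle wells. Lung cancer cell lines in 1536-well plates were pin-tool dosed one day after seeding with one drug alone or with a fixed anchor-drug dose plus five library-drug doses (not always all listed) in √10 steps, then fixed, stained and imaged at 4× after 5 days.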

[2] = compound: C1=CC2=C(C=C(C(=C2N=C1)O)N=NC3=CC4=C(C=C3)C=C(C=C4)S(=O)(=O)O)S(=O)(=O)O + COc1cc2c(Oc3ccc(NC(=O)C4(C(=O)Nc5ccc(F)cc5)CC4)cc3F)ccnc2cc1OCCCN1CCOCC1 [Foretinib] (partner 0.25 µM)
Method in brief: as §1

[3] = compound: C1=CC2=C(C=C(C(=C2N=C1)O)N=NC3=CC4=C(C=C3)C=C(C=C4)S(=O)(=O)O)S(=O)(=O)O + CC(=O)Nc1cccc(-n2c(=O)n(C3CC3)c(=O)c3c(Nc4ccc(I)cc4F)n(C)c(=O)c(C)c32)c1 [Trametinib] (partner 0.02 µM)
Method in brief: as §1

[4] = compound: C1=CC2=C(C=C(C(=C2N=C1)O)N=NC3=CC4=C(C=C3)C=C(C=C4)S(=O)(=O)O)S(=O)(=O)O + Cc1cc(Nc2cc(N3CCN(C)CC3)nc(Sc3ccc(NC(=O)C4CC4)cc3)n2)n[nH]1 [Tozasertib] (partner 0.1 µM)
Method in brief: as §1

Cell Line: UMC-11
- relative viability ([1]; first compound 0.08 µM): 0.261
- relative viability ([1]; first compound 0.253 µM): 0.334
- relative viability ([1]; first compound 0.8 µM): 0.314
- relative viability ([1]; first compound 2.53 µM): 0.293
- relative viability ([1]; first compound 8 µM): 0.333
- relative viability ([2]; first compound 0.08 µM): 1.13
- relative viability ([2]; first compound 0.253 µM): 1.04
- relative viability ([2]; first compound 0.8 µM): 0.938
- relative viability ([2]; first compound 2.53 µM): 1.05
- relative viability ([2]; first compound 8 µM): 1.01
- relative viability ([3]; first compound 0.08 µM): 0.74
- relative viability ([3]; first compound 0.253 µM): 0.777
- relative viability ([3]; first compound 0.8 µM): 0.658
- relative viability ([3]; first compound 2.53 µM): 0.728
- relative viability ([3]; first compound 8 µM): 0.766
- relative viability ([4]; first compound 0.08 µM): 0.187
- relative viability ([4]; first compound 0.253 µM): 0.193
- relative viability ([4]; first compound 0.8 µM): 0.212
- relative viability ([4]; first compound 2.53 µM): 0.205
- relative viability ([4]; first compound 8 µM): 0.179
